Laboratory results reported in patent publication US9328138B2 (priority 2011, dated 2016).
Structures can show the parent of a compound that is named as a salt.

Legend:
[1] = target: T1, HCV genotype 1b (BK) NS3 modified enzyme with a R155K mutation (Hepatitis C virus genotype 1b, UniProt P26663, R1181K); test: HCV NS3 protease time-resolved fluorescence (TRF) assay, genotype 1b R155K; format: biochemical; details: Ki 1b R155K
T1 construct: HCV genotype 1b (BK) NS3 modified enzyme
Outline: (§1)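 Time-resolved fluorescence, ex 340/em 615 nm, 400 μs delay; IC50 by four-parameter fit. Enzyme preincubated with compound 10 min, then TRF substrate 25 nM final added and reaction run 6 h at RT. Buffer HEPES pH 7.5 with NaCl, glycerol, Triton X-100, DTT, PEG 8000.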

[2] = target: HCV NS3 protease genotype 3a (3A-1) (Hepatitis C virus genotype 3a, UniProt Q81258); test: HCV NS3 protease time-resolved fluorescence (TRF) assay, genotype 3a; format: biochemical; details: Ki 3a
Outline: as §1

[3] = genotype 1b (BK) NS3 R155K, single value
[4] = first of two values printed in the cell (not explained)
[5] = second of two values printed in the cell (not explained)

SMILES | Ki [1, 3] [nM] | Ki [2] [nM] | Ki [1, 4] [nM] | Ki [1, 5] [nM]
C=C[C@@H]1C[C@]1(NC(=O)[C@@H]1C[C@@H]2CN1C(=O)[C@H](C1CCCC1)NC(=O)O[C@@H]1CCC[C@H]1CC/C=C/Cc1c(nc3ccccc3c1OCCCOCCOC)O2)C(=O)NS(=O)(=O)C1(C)CC1 [Example 57, (3aR,7S,10S,12R,21E,24aS)-7-cyclopentyl-N-[(1R,2S)-2-ethenyl-1-{[(1-methylcyclopropyl)sulfonyl]carbamoyl}cyclopropyl]-19-[3-(2-methoxyethoxy)propoxy]-5,8-dioxo-1,2,3,3a, 5,6,7,8,11,12,20,23,24,24a-tetradecahydro-10H-9,12-methanocyclopenta[18,19][1,10,3,6]dioxadiazacyclononadecino[11,12-b] quinoline-10-carboxamide] | 0.11 | 2.3 |  | 
C=CC1C[C@]1(NC(=O)[C@@H]1C[C@@H]2CN1C(=O)[C@H](C1CCCC1)NC(=O)O[C@@H]1CCC[C@H]1CC/C=C/Cc1c(nc3ccccc3c1OCCN1CCCCC1)O2)C(=O)NS(=O)(=O)C1CC1 (stereo partly shown) [Example 81] | 0.29 | 4.6 |  | 
C=C[C@@H]1C[C@]1(NC(=O)[C@@H]1C[C@@H]2CN1C(=O)[C@H](C(C)(C)C)NC(=O)O[C@@H]1C[C@H]1CCCCCc1c(nc3ccccc3c1OC1CN(CC3CC3)C1)O2)C(=O)NS(=O)(=O)C1(C)CC1 [Example 223, (1aR,5S,8S,10R,22aR)-5-tert-butyl-17-{[1-(cyclopropylmethyl)azetidin-3-yl]oxy}-N-[(1R,2S)-2-ethenyl-1-{[(1-methylcyclopropyl)sulfonyl]carbamoyl}cyclopropyl]-3,6-dioxo-1,1a,3,4,5,6,9,10,18,19,20,21,22,22a-tetradecahydro-8H-7,10-methanocyclopropa[18,19][1,10,3,6]dioxadiazacyclononadecino[11,12-b]quinoline-8-carboxamide] | 0.055 | 1.2 |  | 
C=C[C@@H]1C[C@]1(NC(=O)[C@@H]1C[C@@H]2CN1C(=O)[C@H](C1CCCC1)NC(=O)O[C@@H]1CCC[C@H]1CC/C=C/Cc1c(nc3ccccc3c1OCc1ccccc1)O2)C(=O)NS(=O)(=O)C1CC1 [Example 8, (3aR,7S,10S,12R,21E,24aS)-19-(benzyloxy)-7-cyclopentyl-N-{(1R,2S)-1-[(cyclopropylsulfonyl)carbamoyl]-2-ethenylcyclopropyl}-5,8-dioxo-1,2,3,3a,5,6,7,8,11,12,20,23,24,24a-tetradecahydro-10H-9,12-methanocyclopenta[18,19][1,10,3,6] dioxadiazacyclononadecino[11,12-b]quinoline-10-carboxamide] | 1.6 | 51 |  | 
C=C[C@@H]1C[C@]1(NC(=O)[C@@H]1C[C@@H]2CN1C(=O)[C@H](C1CCCCC1)NC(=O)O[C@@H]1C[C@H]1CCCCCc1c(nc3ccccc3c1CN1CCN(C)CC1)O2)C(=O)NS(=O)(=O)C1(C)CC1 [Example 266, potassium ({(1R,2S)-1-[({(1aR,5S,8S,10R,22aR)-5-cyclohexyl-17-[(4-methylpiperazin-1-yl)methyl]-3,6-dioxo-1,1a,3,4,5,6,9,10,18,19,20,21,22,22a-tetradecahydro-8H-7,10-methanocyclopropa[18,19][1,10,3,6]dioxadiazacyclononadecino[11,12-b]quinolin-8-yl}carbonyl)amino]-2-ethenylcyclopropyl}carbonyl)[(1-methylcyclopropyl)sulfonyl]azanide] |  | 7.5 | 0.02 | 0.044
C=C[C@@H]1C[C@]1(NC(=O)[C@@H]1C[C@@H]2CN1C(=O)[C@H](C(C)(C)C)NC(=O)O[C@@H]1C[C@H]1CCCCCc1c(nc3ccccc3c1OCCCN1CCC3(CCCC3)C1)O2)C(=O)NS(=O)(=O)C1(C)CC1 [Example 207, (1aR,5S,8S,10R,22aR)-17-[3-(2-azaspiro[4.4]non-2-yl)propoxy]-5-tert-butyl-N-[(1R,2S)-2-ethenyl-1-{[(1-methylcylcopropyl)sulfonyl]carbamoyl}cyclopropyl]-3,6-dioxo-1,1a,3,4,5,7,9, 10,18,19,20,21,22,22a-tetradecahydro-8H-7,10-methanocyclopropa[18,19][1,10,3,6] dioxadiazacyclononadecino[11,12-b] quinoline-8-carboxamide] | 0.11 | 1.3 |  | 
C=C[C@@H]1C[C@]1(NC(=O)[C@@H]1C[C@@H]2CN1C(=O)[C@H](C(C)(C)C)NC(=O)O[C@@H]1C[C@H]1CCCCCc1c(nc3ccccc3c1OCCCN(C)CC1CCC(=O)N1)O2)C(=O)NS(=O)(=O)C1(C)CC1 (stereo partly drawn) [Example 195, (1aR,5S,8S,10R,22aR)-5-tert-butyl-N-[(1R,2S)-2-ethenyl-1-{[(1-methylcyclopropyl)sulfonyl]carbamoyl}cyclopropyl]-17-(3-{methyl[(5-oxopyrrolidin-2-yl)methyl]amino}propoxy)-3,6-dioxo-1,1a,3,4,5,6,9,10,18, 19,20,21,22,22a-tetradecahydro-8H-7,10-methanocyclopropa[18,19][1,10,3,6] dioxadiazacyclononadecino[11,12-b] quinoline-8-carboxamide] | 0.049 | 0.66 |  | 
C=C[C@@H]1C[C@]1(NC(=O)[C@@H]1C[C@@H]2CN1C(=O)[C@H](C(C)(C)C)NC(=O)O[C@@H]1C[C@H]1CCCCCc1c(nc3ccccc3c1OCCCN1CCNC(C(F)(F)F)C1)O2)C(=O)NS(=O)(=O)C1(C)CC1 (stereo partly drawn) [Example 205, (1aR,5S,8S,10R,22aR)-5-tert-butyl-N-[(1R,2S)-2-ethenyl-1-{[(1-methylcyclopropyl)sulfonyl]carbamoyl}cylcopropyl]-3,6-dioxo-17-{3-[3-(trifluoromethyl)piperazin-1-yl]propoxy}-1,1a,3,4,5,6,9,10,18, 19,20,21,22,22a-tetradecahydro-8H-7,10-methanocyclopropa[18,19][1,10,3,6] dioxadiazacyclononadecino[11,12-b] quinoline-8-carboxamide] | 0.19 | 1.9 |  | 
C=C[C@@H]1C[C@]1(NC(=O)[C@@H]1C[C@@H]2CN1C(=O)[C@H](C1CCCC1)NC(=O)O[C@@H]1CCC[C@H]1CC/C=C/Cc1c(nc3ccccc3c1OC(=O)C(C)C)O2)C(=O)NS(=O)(=O)C1CC1 [Example 40, (3aR,7S,10S,12R,21E,24aS)-7-cyclopentyl-10-({(1R,2S)-1-[(cyclopropylsulfonyl)carbamoyl]-2-ethenylcyclopropyl}carbamoyl)-5,8-dioxo-1,2,3,3a,5,6,7,8,11,12,20,23,24,24a-tetradecahydro-10H-9,12-methanocyclopenta[18,19][1,10,3,6]dioxadiazacyclononadecino[11,12-b]quinolin-19-yl 2-methylpropanoate] | 1.3 | 27 |  | 
C=C[C@@H]1C[C@]1(NC(=O)[C@@H]1C[C@@H]2CN1C(=O)[C@H](C1CCCCC1)NC(=O)O[C@@H]1C[C@H]1CCCCCc1c(nc3ccccc3c1OCCCSc1nccs1)O2)C(=O)NS(=O)(=O)C1(C)CC1 [Example 172] | 1.1 | 14 |  | 
C=C[C@@H]1C[C@]1(NC(=O)[C@@H]1C[C@@H]2CN1C(=O)[C@H](C1CCCCC1)NC(=O)O[C@@H]1C[C@H]1CCCCCc1c(nc3ccccc3c1OC1CCN(CC(F)(F)F)CC1)O2)C(=O)NS(=O)(=O)C1(C)CC1 [Example 236, 4-{[(1aR,5S,8S,10R,22aR)-5-cyclohexyl-8-{[(1R,2S)-2-ethenyl-1-{[(1-methylcyclopropyl)sulfonyl]carbamoyl}cyclopropyl]carbamoyl}-3,6-dioxo-1,1a,3,4,5,6,9,10,18,19,20,21,22,22a-tetradecahydro-8H-7,10-methanocyclopropa[18,19][1,10,3,6]dioxadiazacyclononadecino[11,12-b]quinolin-17-yl]oxy}-1-(2,2,2-trifluoroethyl)piperidinium formate] |  | 110 | 0.33 | 5.44
C=C[C@@H]1C[C@]1(NC(=O)[C@@H]1C[C@@H]2CN1C(=O)[C@H](C1CCCC1)NC(=O)O[C@@H]1CCC[C@H]1CC/C=C/Cc1c(nc3ccccc3c1OCCCN1CCNC1=O)O2)C(=O)NS(=O)(=O)C1(C)CC1 [Example 48, (3aR,7S,10S,12R,21E,24aS)-7-cyclopentyl-N-[(1R,2S)-2-ethenyl-1-{[(1-methyl-cyclopropyl)sulfonyl]carbamoyl}cyclopropyl]-5,8-dioxo-19-[3-(2-oxoimidazolidin-1-yl)propoxy]-1,2,3,3a,5,6,7,8,11,12,20,23,24,24a-tetradecahydro-10H-9,12-methanocyclopenta [18,19][1,10,3,6]dioxadiazacyclononadecino [11,12-b]quinoline-10-carboxamide] | 0.12 | 0.76 |  | 
C=C[C@@H]1C[C@]1(NC(=O)[C@@H]1C[C@@H]2CN1C(=O)[C@H](C1CCCC1)NC(=O)O[C@@H]1C[C@H]1CCCCCc1c(nc3ccccc3c1OCCN1CCOCC1)O2)C(=O)NS(=O)(=O)C1(C)CC1 [Example 121, (1aR,5S,8S,10R,22aR)-5-cyclopentyl-N-[(1R,2S)-2-ethenyl-1-{[(1-methylcyclopropyl)sulfonyl]carbamoyl}cyclopropyl]-17-[2-(morpholin-4-yl)ethoxy]-3,6-dioxo-1,1a,3,4,5,6,9,10,18,19,20,21,22, 22a-tetradeca hydro-8H-7,10-methanocyclopropa[18,19][1,10,3,6] dioxadiazacyclononadecino [11,12-b]quinoline-8-carboxamide] | 0.38 | 12 |  | 
